Measured values as given in patent US20080300298A1, “Honokiol Derivates For the Treatment of Proliferative Disorders” (priority 2005, published 2008).

Legend:
[1] = system: tumor cells isolated from patients with relapsed refractory MM; assay: cytotoxicity against patient MM cells (CD38high, flow cytometry); format: cell-based, human; conditions: 8 ug/ml, 48 h, N=6, mean ±SD
Method: Assessment of HNK-induced cytotoxicity against patient MM cells: Cytotoxicity of HNK against fresh MM cells was determined as previously determined, see, for example, Mitsiades et al Cancer Cell. 2004; 5:221-230. Fresh MNCs separated from bone marrow samples derived from patients with MM were incubated with PE-conjugated anti-CD138 antibody and/or FITC-conjugated anti-CD38 antibody (BD Biosciences, San Diego, Calif.) for 30 minutes on ice and washed, followed by analysis using EPICS XL flow cytometer (Beckman Coulter, Hialeah, Fla.). A CD38^high fraction enriched for MM cells was determined in side and forward scatter panel in each case. The expression of CD138 on gated cells was also evaluated. After HNK-treatment for 48 h, cells were harvested and percentage of CD38^high cells with or without HNK-treatment was evaluated. […] Cells were stained with propidium iodide (PI; 50 μg/mL; Sigma, St Louis, Mo.), and cell cycle profile was determined by using the program M software on an EPICS XL flow cytometer (Beckman Coulter, Hialeah, Fla.). […] Fluorescence intensity of TUNEL and APO 2.7 staining was determined using on EPICS XL flow cytometer. Cytotoxicity was determined by trypan blue exclusion assay. […] Cell growth and induction of apoptosis were determined both by colorimetric assay and now cytometric detection of APO2.7 after 48 h treatment. […] DNA synthesis was measured by [^3H]-thymidine uptake. […]

[2] = system: STAT-3, ERK and Akt phosphorylation in MM.1S cells; assay: Western blotting of IL-6 / IGF-1 growth signaling; format: cell-based, human; conditions: 10 ug/ml HNK for 3 and 6 h, then IL-6 (10 ng/ml) or IGF-1 (25 ng/ml)
[3] = system: phospholipase D in SVR cells; assay: phospholipase D activity; format: cell-based; conditions: 0.5% and 10% serum
Source text: Honokiol analogs can stimulate tumor and endothelial cell apoptosis through inhibition of PLD activity. […] Treatment with […] causes downregulation of S6kinase phosphorylation in a time and dose dependent fashion, as well as downregulation of akt. Thus, honokiol mimics several of the activities of wild type tuberin.

[4] = system: PARP in KBM-5 cells; assay: PARP cleavage assay; format: cell-based, human; conditions: KBM-5, TNF 1 nM with honokiol (25 mM printed)
Method: (D) depicts that honokiol enhances TNF-induced cell death.
PARP cleavage assay. For detection of cleavage products of PARP, whole-cell extracts were prepared by subjecting honokiol-treated cells to lysis in lysis buffer (20 mM Tris, pH 7.4; 250 mM NaCl; 2 mM EDTA, pH 8.0; 0.1% TritonX-100; 0.01 mg/ml aprotinin; 0.005 mg/ml leupeptin; 0.4 mM PMSF; and 4 mM NaVO4). Lysates were spun at 14000 rpm for 10 min to remove insoluble material, resolved by 10% SDS PAGE, and probed with PARP antibodies.
By using caspase-activated PARP cleavage, it was shown that the enhanced cytotoxicity was due to apoptosis. TNF-induced PARP cleavage was enhanced in the honokiol-treated cells (FIG. 26C).

[5] = system: lymph node cultures; assay: antigen recall lymph node cultures from treated mice; format: in vivo, C57BL/6 or mCD40-LMP1 Tg mice; conditions: honokiol 3 mg/day, day 21-70 post-immunization
Method: Mice were assessed 70 days post-immunization with CII/CF or CFA only (or naïve). Some mice received honokiol (3 mg/day) from day 21-70 post-immunization.

Question: With `C=CCc1ccc(O)c(-c2ccc(O)c(CC=C)c2)c1` [HNK, Honokiol] as the molecule, how does the “percentage of CD38high cells compared to control cultures” value [1] read?
Answer: 26.2±15.8%

Question: And the “phosphorylation induced by IL-6 and IGF-1” value [2]?
Answer: significantly reduced phosphorylation of STAT-3, ERK and Akt induced by IL-6, as well as ERK and Akt induced by IGF-1

Question: What about the “activity of phospholipase D” value [3] of the same molecule?
Answer: inhibits the activity of phospholipase D in both 0.5% and 10% serum

Question: What about the “TNF-induced PARP cleavage” value [4] of the same molecule?
Answer: enhanced

Question: What about the “proliferation and cytokine production of antigen recall lymph node cultures” value [5] of the same molecule?
Answer: decreased proliferation and IFN-g production, with unaltered IL-10 production
